Source: patent US20080213338A1, “IMPLANT STENT WITH A RETINOID FOR IMPROVED BIOCOMPATIBILITY” (priority 1997, published 2008)

Test system: pigmented rabbits
Experiment: Retinal plug implantation in vitrectomized rabbit eyes, histopathology (PAS stain) at 28 days
Format: in vivo
Conditions: polylactic acid plug containing 10% by weight retinoid, inserted into vitreous through sclera; intravitreal injection of 500,000 human RPE cells; 28 days after insertion
Experimental: Retinal plugs were manufactured from poly(D,L)lactic acid (PLA) with an intrinsic viscosity of 0.6 DL/G. The retinoid 6-[(4,4-dimethyl thiochroman-6-yl)ethynl]nicotinic acid (AGN190299) was mixed with polymer in a three-dimensional mixer. The mixture was then extruded at 85° C. into a homogeneous rod. The retinoid was incorporated into the polymeric plug at a concentration of 10%. […] A 0.5 mm hole was drilled into the distal end of the plug to allow for suture fixation to the sclera. Placebo plugs containing no retinoid were also manufactured to the same dimensions. The average weight of the plugs was 8 mg. All plugs were sterilized by gamma irradiation at l Mrad.
The rabbit eyes were vitrectomized and the retinal plugs with or without incorporated retinoid were inserted through a sclerotomy 3 mm posterior to the corneoscleral limbus. The plugs were then fixated with the suture used to close the sclerotomy. An intravitreal injection of 500,000 human RPE cells was given to simulate traction retinal detachment. The rabbits were sacrificed at 28 days and histopathology was done.
These observed results are shown in FIG. 7 for the placebo plug and in FIG. 8 for the plug 10 including the retinoid as hereinabove described.

Question: Which “fibrous inflammation of the capsule surrounding the plug (histopathology, PAS stain)” value does the source give for `CC1(C)CCSc2ccc(C#Cc3ccc(C(=O)O)cn3)cc21` [AGN190299, 6-[(4,4-dimethylthiochroman-6-yl)ethynyl]nicotinic acid] here?
Answer: very little fibrous inflammation
